“Also recorded” adds a separate entry of the source.
How the values were obtained:
[1] = C-max obtained from FDA or literature; ref per compound (FDA, Dailymed, Xu, O’Brien, Khetani, Regenthal, Gustafsson, Dawson, Ogutu, Patel, Schmidt, Ravic, Keisu, Hu, Wagner); cited from earlier work
[2] = ref livertox.nih.gov database; cited from earlier work
[3] = ref Chen et al. [2016], cited from earlier work; for DILI con. (DILI-concern labeling): FDA DILI labeling; for Hepa. (hepatotoxicity class): FDA labeling in eight classes of hepatotoxicity
[4] = system: Srxn1-GFP (oxidative stress); assay: HepG2 Srxn1-GFP BAC reporter, live cell confocal imaging (oxidative stress); assay type: cell-based, Human; conditions: for activation of Srxn1-GFP and/or CHOP-GFP (cluster 3): cluster description, reporter not resolved per drug (Srxn1-GFP and/or CHOP-GFP); for Srxn1-GFP reporter response: HepG2 BAC-GFP, 24 h live imaging, 1-100 C-max
Method: (§1) Human hepatoma HepG2 cells were acquired from ATCC (clone HB8065). HepG2 Srxn1, DDIT3 (CHOP), CDKN1A (p21) and ICAM1 BAC GFP reporter cell lines were previously established and characterized (Wink et al. [2017]). HepG2 BAC GFP reporters were maintained and exposed to drugs in DMEM high glucose supplemented with 10% (v/v) FBS, 25 U/mL penicillin and 25 µg/mL streptomycin. The cell lines were used between passage 5 and 25. For live cell imaging, the cells were seeded in Greiner black µ-clear 384 wells plates, at 8000 cells per well.
Accumulation of GFP levels, propodium iodide (PI) and Hoechst staining was monitored using a Nikon TiE2000 confocal laser microscope (lasers 540, 488 and 408 nm), equipped with an automated stage and perfect focus system at 37 °C with humidified atmosphere and 5% CO2/air mixture. All imaging was similar as previously described^5. Each 384-well plate contained one reporter cell line, which was exposed to all the compounds used in the screen at one certain concentration (1, 5, 10, 50 or 100 Cmax); for each concentration at least two replicates were imaged per reporter cell line. For the ICAM1-GFP reporter experiments, cells were first exposed for 8 h to compound only; next, TNFα was added to all wells, up to a final concentration of 10 ng/mL. Directly after TNFα treatment the live cell imaging was started.
(§2) Quantitative image analysis was performed with CellProfiler version 2.1.1 (Kamentsky et al. [2011]) with an in house developed CellProfiler module implementing the watershed masked algorithm for segmentation (Yan and Verbeek [2012]; Wink et al. [2017]). Image analysis results were stored as HDF5 files. Data analysis, quality control and graphics were performed using the in house developed R package h5CellProfiler (manuscript in preparation). For each reporter hourly intensity levels of the GFP signal, the nuclear Hoechst33342 intensity levels and at 24 h the PI staining were measured at the single cell level. In addition, cell numbers, nuclei size and cell motility were measured.
(§3) GFP intensity cell population means were calculated. In addition, for each plate the cell population mean GFP intensity of the DMSO treated cells was calculated to determine background control values. Per plate, the single cells that had values above the 2X mean, 3X mean were counted resulting in GFP positive fraction measures. For ICAM1, the background control values consisted of DMSO conditions treated with TNFα, and the single cells with values above, as well as below background values were counted. Due to the non-symmetric distribution of ICAM1 cell population GFP intensities, the interquartile range (IQR) was used to count the number of cells 1.5, 2 and 3 times above and below the TNFα IQR control values (Supplemental Fig. 1).
The maximum values over time of the scaled intensity levels and positive GFP fractions were selected for the concentration response curves. These values were fit to a four parameter log-logistic model using the drc package (Ritz et al. [2015]). BMC values were calculated as the concentration at which + 0.25 (and − 0.25 for ICAM1) absolute increase from the initial response values occurred (Fig. 5a).

[5] = system: ICAM1-GFP (NF-κB-mediated inflammatory signaling); assay: HepG2 ICAM1-GFP BAC reporter, TNFα-induced, live cell confocal imaging; assay type: cell-based, Human; conditions: for modulation of TNFα-induced ICAM1-GFP response: HepG2 BAC-GFP, 8 h compound then TNFα 10 ng/mL, 24 h live imaging, 1-100 C-max
Method: Human hepatoma HepG2 cells were acquired from ATCC (clone HB8065). HepG2 Srxn1, DDIT3 (CHOP), CDKN1A (p21) and ICAM1 BAC GFP reporter cell lines were previously established and characterized (Wink et al. [2017]). […] The cell lines were used between passage 5 and 25. For live cell imaging, the cells were seeded in Greiner black μ-clear 384 wells plates, at 8000 cells per well. […] All imaging was similar as previously described^5. […] Directly after TNFα treatment the live cell imaging was started. Quantitative image analysis was performed with CellProfiler version 2.1.1 ([…] et al. [2011]) with an in house developed CellProfiler module implementing the watershed masked algorithm for segmentation (Yan and Verbeek [2012]; Wink et al. [2017]). Image analysis results were stored as HDF5 files. Data analysis, quality control and graphics were performed using the in house developed R package h5CellProfiler (manuscript in preparation). For each reporter hourly intensity levels of the GFP signal, the nuclear Hoechst33342 intensity levels and at 24 h the PI staining were measured at the single cell level. In addition, cell numbers, nuclei size and cell motility were measured. GFP intensity cell population means were calculated. In addition, for each plate the cell population mean GFP intensity of the DMSO treated cells was calculated to determine background control values. Per plate, the single cells that had values above the 2X mean, 3X mean were counted resulting in GFP positive fraction measures. For ICAM1, the background control values consisted of DMSO conditions treated with TNFα, and the single cells with values above, as well as below background values were counted. […] Linear regression was applied with respect to time to quantify treatment effects on a plate-to-plate basis to quantify cell speed, nuclear size, Hoechst nuclear intensity and cell numbers. […] The maximum values over time of the scaled intensity levels and positive GFP fractions were selected for the concentration response curves. These values were fit to a four parameter log-logistic model using the drc package (Ritz et al. [2015]). BMC values were calculated as the concentration at which + 0.25 (and - 0.25 for ICAM1) absolute increase from the initial response values occurred (Fig. 5a).

[6] = two classes made from the FDA DILI-concern labeling
[7] = system: CHOP-GFP (ER stress/UPR response); assay: HepG2 CHOP-GFP BAC reporter, live cell confocal imaging (ER stress/UPR); assay type: cell-based, Human; conditions: for CHOP-GFP reporter response: HepG2 BAC-GFP, 24 h live imaging, 1-100 C-max
[8] = system: p21-GFP (p53-mediated DNA damage-related response); assay: HepG2 p21-GFP BAC reporter, live cell confocal imaging (DNA damage); assay type: cell-based, Human; conditions: 24 h live imaging, 1-100 C-max
Method: as §1
Accumulation of GFP levels, propodium iodide (PI) and Hoechst staining was monitored using a Nikon TiE2000 confocal laser microscope (lasers 540, 488 and 408 nm), equipped with an automated stage and perfect focus system at 37 °C with humidified atmosphere and 5% CO2/air mixture. All imaging was similar as previously described^5. […]
as §2, with “Image analysis results were stored as HDF5 files. Data analysis, quality control and graphics were performed using the in house developed R package h5CellProfiler (manuscript in preparation).” left out
as §3, with “Due to the non-symmetric distribution of ICAM1 cell population GFP intensities, the interquartile range (IQR) was used to count the number of cells 1.5, 2 and 3 times above and below the TNFα IQR control values (Supplemental Fig. 1).” left out

[9] = order of responses in 24 h, 100× C-max printed for nimesulide, rifampicin, oxytetracycline

SMILES	Cmax [1] [µM]	Metab (metabolic potential) [2]	DILI con. (DILI-concern labeling) [3]	Hepa. (hepatotoxicity class) [3]	modulation of TNFα-induced ICAM1-GFP response [5]	Srxn1-GFP reporter response [4]	CHOP-GFP reporter response [7]	also measured
CN(C)CCCN1c2ccccc2Sc2ccc(Cl)cc21 [Chlorpromazine]	0.94	YES	Less-DC	2	–	–	–	Srxn1-GFP response at the intensity feature level (cell population) ([4]; GFP intensity over the single cell population): would not have been defined as positive
O=C(O)Cc1ccccc1Nc1c(Cl)cccc1Cl [Diclofenac]	10.1	–	–	–	inhibiting; also recorded: mild ICAM1-GFP suppression	–	–	Severity class [6]: Sev.; activation of Srxn1-GFP and/or CHOP-GFP (cluster 3) [4]: activation of Srxn1-GFP and/or CHOP-GFP
CN(C)[C@@H]1C(O)=C(C(N)=O)C(=O)[C@@]2(O)C(O)=C3C(=O)c4c(O)cccc4[C@@](C)(O)[C@H]3[C@H](O)[C@@H]12 [Oxytetracycline]	3.26	–	Amb.-DC	2	–	–	–	CHOP-GFP response, time dynamics relative to Srxn1-GFP [7, 9]: initial CHOP-GFP response; Srxn1-GFP response, time dynamics relative to CHOP-GFP [4, 9]: delayed Srxn1-GFP response
Nc1c(CC(=O)O)cccc1C(=O)c1ccc(Br)cc1 [Bromfenac]	18	–	Most-DC	8	mild ICAM1-GFP suppression	–	–	activation of Srxn1-GFP and/or CHOP-GFP (cluster 3) [4]: activation of Srxn1-GFP and/or CHOP-GFP
Cn1cnc([N+](=O)[O-])c1Sc1ncnc2nc[nH]c12 [Azathioprme, azathioprine]	0.34	YES	Most-DC	5	enhancing; also recorded: mild Srxn1-GFP and ICAM1-GFP activation	mild Srxn1-GFP and ICAM1-GFP activation	–	–
CC1=C(CC(=O)O)c2cc(F)ccc2/C1=C\c1ccc([S+](C)[O-])cc1 (centres unmarked) [Sulindac]	32	YES	Most-DC	8	–	activation	–	–
O=C1CN(/N=C/c2ccc(-c3ccc([N+](=O)[O-])cc3)o2)C(O)=N1 [Dantrolene]	7.9	YES	Most-DC	8	mild ICAM1-GFP suppression	–	–	activation of Srxn1-GFP and/or CHOP-GFP (cluster 3) [4]: activation of Srxn1-GFP and/or CHOP-GFP
O=C1CN(/N=C/c2ccc([N+](=O)[O-])o2)C(=O)N1 [Nitrofurantoin]	6	YES	Most-DC	8	strong ICAM1-GFP suppression	–	CHOP-GFP activation	–
COc1cc2c(c(OC)c1OC)-c1ccc(OC)c(=O)cc1[C@@H](NC(C)=O)CC2 [Colchicine]	0.016	YES	Amb.-DC	6	mild Srxn1-GFP and ICAM1-GFP activation	mild Srxn1-GFP and ICAM1-GFP activation	–	Severity class [6]: Non-sev.
COc1cc([C@@H]2c3cc4c(cc3[C@@H](O[C@@H]3O[C@@H]5CO[C@@H](C)O[C@H]5[C@H](O)[C@H]3O)[C@H]3COC(=O)[C@H]23)OCO4)cc(OC)c1O [Etoposide]	–	YES	–	–	–	–	–	p21-GFP reporter response [8]: strong inducers
CCc1oc2ccccc2c1C(=O)c1cc(Br)c(O)c(Br)c1 [Benzbromarone]	4.34	YES	Most-DC	8	mild ICAM1-GFP suppression	–	–	activation of Srxn1-GFP and/or CHOP-GFP (cluster 3) [4]: activation of Srxn1-GFP and/or CHOP-GFP
Sc1ncnc2nc[nH]c12 [Mercaptopurine]	0.48	YES	Most-DC	8	increased	increased	increased	modulation of TNFα-induced ICAM1-GFP response ([5]; listed as mercaptopurine): relatively strong activation; also recorded: mild Srxn1-GFP and ICAM1-GFP activation; point-of-departure (PoD) for ICAM-GFP response relative to onset of SRXN1-GFP response ([5]; peak response, concentration series 1-100 C-max): at a lower C-max; p21-GFP reporter response [8]: increased; Srxn1-GFP reporter response ([4]; listed as mercaptopurine): relatively strong activation; also recorded: mild Srxn1-GFP and ICAM1-GFP activation
CCc1nn(CCCN2CCN(c3cccc(Cl)c3)CC2)c(=O)n1CCOc1ccccc1 [Nefazodone]	3.95	YES	Most-DC	8	strong ICAM1-GFP suppression	–	CHOP-GFP activation	–
C[C@](N)(Cc1ccc(O)c(O)c1)C(=O)O [Methyldopa]	18.9	YES	Most-DC	8	inhibited	increased	–	p21-GFP reporter response [8]: increased
C/C=C(/C)C(=O)O[C@H]1C(C)=C2[C@H]([C@@H]1OC(=O)CCCCCCC)[C@@](C)(OC(C)=O)C[C@H](OC(=O)CCC)[C@@]1(O)[C@H]2OC(=O)[C@@]1(C)O [Thapsigargin]	–	–	–	–	–	–	strong inducers	–
CN1CCN(C2=Nc3cc(Cl)ccc3Nc3ccccc32)CC1 [Clozapine]	2.44	YES	–	–	strong ICAM1-GFP suppression	–	CHOP-GFP activation	–

Reference: paper PMC5962642, “Dynamic imaging of adaptive stress response pathway activation for prediction of drug induced liver injury” (Archives of Toxicology, 2018)
